The values below come from patent US20040235920A1, “Novel use of substituted aminomethyl chromans for the treatment of movement disorders and of adverse effects induced by drugs administered to treat extrapyramidal movement disorders” (priority 2001, published 2004).

SMILES strings stand for the structures.

One test concerns cataleptic rat. Kind of test: Reversal of catalepsy in rats (oral ED50). In kind it is in vivo. To be noted: rats; for ED50: Rattus norvegicus, read-out: oral ED50 value (calculated dose to reverse catalepsy by 50%); for ED50 / oral ED50 value (calculated dose to reverse catalepsy by 50%): oral. The procedure: Extrapyramidal motor side effects in e.g. rodents are measured by the ability of a drug to induce catalepsy. Catalepsy is defined as a state where an animal continues to remain in an unnormal (nonphysiological ‘uncomfortable’) posture for a long time (e.g.: M. E. Stanley and S. D. Glick, Neuropharmacology, 1996; 15: 393-394; C. J. E. Niemegeers and P. Janssen, Life Sci., 1979, […]). For example, if a hindpaw of a rat is placed on an elevated level, e.g. a platform elevated 3 cm above ground level, a normal rat immediately withdraws the hindpaw from the platform to the ground level. A cataleptic rat remains in this unnatural posture even for minutes.

For test [1], the system named is patients with advanced idiopathic Parkinson's disease complicated by “peak-dose” dyskinesia. Kind of test: Double-blind add-on study in advanced idiopathic Parkinson's disease with peak-dose dyskinesia (diary card). In kind it is in vivo, human. Conditions: 2.5 to 10 mg b.i.d., typical study. The source says:
A typical study to investigate the efficacy of the compounds according to the invention for adverse effects in Parkinson's disease is described in the following. 40 patients of either sex with advanced idiopathic Parkinson's disease complicated by “peak-dose” dyskinesia participate in a double-blind study. The main inclusion criteria are Hoehn & Yahr stage≧2.5 (lit.: Hoehn H. M. et al, Neurology 1967; 17: 427-442), aged 40-75 years, symptom duration of at least 5 years, and a l-dopa treatment duration of at least 3 years. (−)-(R)-2-{4-[[3,4-dihydro-2H-benzopyran-2-yl)-methyl]amino]butyl}-1,2-benzoisothiazol-3-(2H)-on-1,1-dioxide monohydrochloride or placebo is administered as “add on” to the conventional Parkinson treatment, which is maintained unchanged during the whole study. The dose of blinded medication is titrated over a period of 3 weeks in a range from 2.5 to 10 mg b.i.d. Then the medication is kept constant for 3 weeks. Before the start of titration and at the end of the treatment period the patients fill a diary card in 30 min. inervalls for 48 hours. The diary card differentiates 5 different states: (1) “on” without dyskinesia, (2) “on” with troublesome dyskinesia, (3) “on” with non-troublesome dyskinesia, (4) “off” time, and (5) time asleep (Hauser RA et al., Clin. Neuropharmacol., 2000, 23, 75-81). The primary outcome variable of the protocol is the change in “on” time with troublesome dyskinesia. […] The other parameters are not changed.

The next test has as its system MSA patients. Kind of test: Add-on study in MSA patients (UPDRS). In kind it is in vivo, human. To be noted: 1 to 20 mg t.i.d., typical study. The procedure: The study design is similar to that described above for Parkinson's disease. (−)-(R)-2-{4-[[3,4-dihydro-2H-benzopyran-2-yl)-methyl]amino]butyl}-1,2-benzoisothiazol-3-(2H)-on-1,1-dioxide monohydrochloride or placebo is titrated as “add on” to the conventional treatment (dose range 1 to 20 mg t.i.d.). After a double-bllind dose-finding phase of 3 weeks during which the individual dose is identified for each patient on the basis of tolerability and efficacy, the dose is maintained unchanged for 3 additional weeks. Before the start of titration and at the end of the treatment period a complete UPDRS assessment is performed in each patient (primary outcome measure).

Test [2] has as its system patients with cervical dystonia (spasmodic torticollis). The test can be described thus: Double-blind placebo-controlled study in cervical dystonia (TWSTRS). In kind it is in vivo, human. To be noted: 2.5 mg to 20 mg b.i.d.
Test [3] relates to schizophrenic inpatients on long-term antipsychotic treatment. The test can be described thus: Cross-over add-on study in tardive dyskinesia (AIMS). The test is classed as in vivo, human. To be noted: up to 20 mg t.i.d., vs placebo period, typical study. An excerpt:
Tardive dyskinesia is a common adverse effect of long-term treatment with neuroleptics. A typical study to investigate the efficacy of the compounds according to the invention in tardive dyskinesia is described in the following. 32 schizophrenic (DSM-III-R) inpatients aged 25-60 years on long-term stable antipsychotic treatment (duration of at least 5 years) entered the study. (−)-(R)-2-{4-[[3,4-dihydro-2H-benzopyran-2-yl)-methyl]amino]butyl}-1,2-benzoisothiazol-3-(2H)-on-1,1-dioxide monohydrochloride or placebo is administered as “add on” to the antipsychotic treatment, which is kept constant during the whole study. The dose of blinded medication is titrated over a period of 3 weeks in a range from I to 20 mg t.i.d. Then the medication is maintained under double-blind conditions for 2 weeks. After a 2-week wash-out period, the test drugs are crossed over. Assessments of tardive dyskinesia by means of the Abnormal Involuntary Movement Scale (AIMS, see above) and of Parkinsonian extrapyramidal side effects (UPDRS, see above) are made pretreatment and posttreatment.

Test [4] deals with advanced Parkinson patients. Conditions: cited from earlier work.

A word on the ED50: it is the dose that gives a 50% effect, or the effect in half of the subjects. With `CC1(C)CC(=O)N(CCCCN2CCN(c3ncccn3)CC2)C(=O)C1` [gepirone], in the test with cataleptic rat, the ED50 is 16 mg/kg.

For the molecule `O=C1[C@@H]2[C@H]3CC[C@H](C3)[C@@H]2C(=O)N1CCCCN1CCN(c2ncccn2)CC1` [tandosirone], the “oral ED50 value (calculated dose to reverse catalepsy by 50%)” value in the test with cataleptic rat is 60 mg/kg.

Consider `O=C1c2ccccc2S(=O)(=O)N1CCCCN1CCN(c2ncccn2)CC1` [ipsapirone], for which the ED50 in the test on cataleptic rat is 23 mg/kg.

Consider `Cl.O=C1c2ccccc2S(=O)(=O)N1CCCCNC[C@H]1CCc2ccccc2O1` [(−)-(R)-2-{4-[[3,4-dihydro-2H-benzopyran-2-yl)-methyl]amino]butyl}-1,2-benzoisothiazol-3-(2H)-on-1,1-dioxide monohydrochloride], for which the “oral ED50 value (calculated dose to reverse catalepsy by 50%)” value in the test with cataleptic rat is 0,6 mg/kg. For the same molecule, in the test with cataleptic rat (oral ED50 vs ipsapirone, buspirone, gepirone, tandosirone), the “potency in reversing catalepsy compared to other 5-HT1A agonists” value was 30-100 times. Also, in test [1], the other diary parameters result is “not changed”, the ““on” time with troublesome dyskinesia” value is reported as “significant reduction” and the ““on” time without dyskinesia” value is “significantly increase”. In addition, the “UPDRS (Parkinson symptoms)” value with MSA patients is “significant clinical improvement of Parkinson symptoms”. In addition, the TWSTRS scores entry in test [2] is “significant improvement”. The AIMS scores entry in test [3] was “significantly lower than during placebo period”.

For `O=C1CC2(CCCC2)CC(=O)N1CCCCN1CCN(c2ncccn2)CC1` [buspirone], in the test with cataleptic rat, the ED50 was 30 mg/kg. For the same molecule, in test [4], the anti-dyskinetic properties entry is “moderate anti-dyskinetic properties”.
